Data reported in patent publication US20080213768A1, “Identification and use of biomarkers for non-invasive and early detection of liver injury” (priority 2006, published 2008).

Experiments:
Format in all cases: in vivo
[1] = test system: human serum; assay: Biochemical profiling of human serum after single oral dose of APAP, correlated with rat; design: key: X: Biochemicals significantly changed by APAP in both rat and human biological samples; settings: humans single oral dose of 4 g APAP
Method: (§1) Six healthy human volunteers received a standardized soy shake diet for 72 hours. Each volunteer received a single oral dose of 4 g APAP (˜50 mg/kg). Serum and urine were sampled at 0, 6, 18, 24, 48, 72 and 96 hours (urine collected between these times). BCP analysis was carried out as described in Example 1.

[2] = test system: rat urine; assay: Biochemical profiling (LC-MS) of rat urine after a single dose of acetaminophen; design: key to Pipecolate significantly changed / Ribose significantly changed / Tyrosine significantly changed: (x = significantly changed)
[3] = test system: human urine; assay: Biochemical profiling of human urine after single oral dose of APAP, correlated with rat; design: key: X: Biochemicals significantly changed by APAP in both rat and human biological samples; settings: humans single oral dose of 4 g APAP
Method: as §1

[4] = test system: rat serum; assay: Biochemical profiling (LC-MS) of rat serum after a single dose of acetaminophen; design: key to Pipecolate significantly changed / Citrulline significantly changed: (x = significantly changed)

Citrulline significantly changed by APAP in both rat and human [1]: X
Creatinine significantly changed by APAP in both rat and human [1]: X
Glutamate significantly changed by APAP in both rat and human [1]: X
Glutamine significantly changed by APAP in both rat and human [1]: X
Guanosine significantly changed by APAP in both rat and human [1]: X
Homoserine significantly changed by APAP in both rat and human [1]: X
Hypoxanthine significantly changed by APAP in both rat and human [1]: X
Ornithine significantly changed by APAP in both rat and human [1]: X
Phenylalanine significantly changed by APAP in both rat and human [1]: X
Pipecolate significantly changed by APAP in both rat and human [1]: X
Pipecolate significantly changed [2]: x
Ribose significantly changed [2]: x
Tyrosine significantly changed [2]: x
response for Peak13 in urine versus control ([2]; study of Example 1): did not vary significantly from control
responses of aspartic acid, Peak12, glutamine, Peak20, succinic acid and Peak26 versus control (baseline) ([2]; study of Example 1): significant variation from control
2-Oxoglutarate significantly changed by APAP in both rat and human [3]: X
5-Hyroxytryptophan significantly changed by APAP in both rat and human [3]: X
Cytosine significantly changed by APAP in both rat and human [3]: X
Glutamate significantly changed by APAP in both rat and human [3]: X
Lysine significantly changed by APAP in both rat and human [3]: X
Serine significantly changed by APAP in both rat and human [3]: X
Citrulline significantly changed [4]: x
Pipecolate significantly changed [4]: x
Peak13 presence in serum ([4]; study of Example 1): not observed
responses of aspartic acid, Peak12, glutamine, Peak20, succinic acid and Peak26 versus control (baseline) ([4]; study of Example 1): significant variation from control
SMILES: CC(=O)Nc1ccc(O)cc1 [acetaminophen]
